The source of these data is patent US10612071B2, “Method of measuring the deleterious effects of non-caloric artificial sweeteners on enzymatic hydrolysis of sucrose measured in real time” (California State University, Fresno, priority 2016, dated 2020).

Common to all, as to format: biochemical, S. cerevisiae
Data set [1] has as its target T1, Invertase (EC 3.2.1.26, β-fructofuranosidase) (Saccharomyces cerevisiae, UniProt P00724).
T1 construct: purchased Sigma-Aldrich
The data set is described as follows: Glucometer-based Michaelis-Menten kinetics of invertase-catalysed sucrose hydrolysis. The settings on record: for reaction velocity of the sucrose: sucralose 20 mM or lower (FIG. 11). The text has this: (§1) Invertase (EC 3.2.1.26, β-fructofuranosidase, S. cerevisiae) was purchased from Sigma-Aldrich with a specific activity of >300 u/mg of solid (pH 4.6, 303 K).

The target of data set [2] is T1, Invertase (EC 3.2.1.26, β-fructofuranosidase). In words: Real-time 1H-NMR (qNMR) progress curve analysis of invertase-catalysed sucrose hydrolysis, Lambert-W fit. Particulars: for β-anomer of glucose formed: in the presence of sucralose (FIG. 5); for α-anomer of glucose formed: in the presence of sucralose (FIG. 5, 50 mM each).
Description: Equation [5], derived from Equation [2], relates the substrate concentration at any time ([S]) to its initial concentration ([S]0), the Michaelis-Menten kinetic parameters Vmax and KM. Equation [5] is used to fit the real time experimental data obtained for enzyme kinetics using the analysis code written using R-Statistical environment (R Core Team 2014).
as §1
Two standard samples were made in standard 5 mm NMR tubes to set up the NMR parameter.
All NMR kinetics solutions were made in an Eppendorf tube with a volume of 550 μL prior to adding 100 μL of invertase into the Eppendorf tube then transferring 600 μL of the solution into a NMR tube. The 100 μL invertase solution was added into the Eppendorf tube when the NMR kinetics experiment was ready to start. A timer was set at the beginning of the addition of the invertase solution in order to account for the delay time (the time before the collection of the NMR spectra) as this is a crucial part of the latter calculation.
^1H-NMR time-course data were collected in real time by qNMR (Vairan-Agilent, VNMRS system) and the kinetic data were subsequently processed using a non-linear least square fit procedure by using the Lambert-W function. This method was applied to determine the effect on the enzyme kinetics of hydrolysis, a fundamental step in converting the sucrose to glucose and fructose. Experimental results obtained using the direct real-time measurements were validated using a glucometer based approach.
The spectrometer software is used to find the integration under each peak of the sucrose (5.41 ppm) and TSP (0.0 ppm). The concentration of the sucrose peak is calculated with reference to the known concentration of TSP. If multiple experiments are performed, averages and standard deviations of the integrations of the trials at each temperature is calculated. A two-column excel or text (tab limited format) with X=Time and Y=[S] is produced as the input to the R-program. The written code utilizes the following external libraries: spatstat and gsl (to implement functions such as LambertW function), xtable (for table manipulations) and ggplot2 (to make plots (optional)). The R-code reads the input file and creates a data fit, statistics and plot with the experimental and fitted values. Typically the procedure works with a minimum of 15 time points sampled uniformly over the experimental time period chosen and it utilizes a non-linear least square fitting procedure. In addition to generating a plot (FIG. 10A), the code generates a file in picture format (.png) and a tab-limited text file that can be imported into other plotting routines. The statistical parameters of the fit (FIG. 10B) are also available in a tabular form for reporting purposes, which includes the fitted values (Coef.), standard error of the fit, t-statistics and p-value for each of the parameters. If the signal has not decayed to zero, an additional parameter (FIG. 10B) can be used as an offset.

Substrate in data set [3]: OC[C@H]1O[C@@](CO)(O[C@H]2O[C@H](CO)[C@@H](O)[C@H](O)[C@H]2O)[C@@H](O)[C@@H]1O
Described as above. Particulars: 30.0 °C.

Where [4] appears, read: other: Average of three trials, sucrose 42 mM, no sucralose.
The mark [5] stands for this setting: other: Trial 1, sucrose 42 mM, no sucralose.
The mark [6] stands for this setting: other: Trial 2, sucrose 42 mM, no sucralose.
Setting [7] is: other: Trial 3, sucrose 42 mM, no sucralose.
Setting [8] is: other: no sucralose (0 mM), sucrose 40 mM, sucrose:sucralose 1:0.

Entries after “also recorded” stand apart in the source; their conditions may differ.

The term Vmax denotes the rate approached at saturating substrate. Turning to `OC[C@H]1O[C@H](O[C@]2(CCl)O[C@H](CCl)[C@@H](O)[C@@H]2O)[C@H](O)[C@@H](O)[C@H]1Cl` [sucralose], in data set [1] (molar ratio of sucrose to sucralose 1:0.25 (FIG. 13)), the “inhibition (substrate inhibition model curve)” value is on record as “more than 50%”. In addition, the “reaction velocity of the sucrose” value in data set [1] (substrate concentration 0.1 M) and in data set [1] (substrate concentration about 0.27 M) was “over 0.4 M/min” throughout. For the same molecule, the results for the “decrease of the maximal velocity (Vmax)” value in data set [2] (1:2 ratio of sucrose:sucralose) and in data set [2] (addition of sucralose (50 mM)) were ~33% and 37%, respectively. Besides, the “enzyme catalytic activity inhibited” value in data set [2] (1:2 ratio of sucrose:sucralose) came to 50%. For the same molecule, the “increase of the KM value” in data set [2] (1:2 ratio of sucrose:sucralose) is recorded as ~50%; in data set [2] (sucralose 50 mM) it was “more than 20%”. Also, the “β-anomer of glucose formed” value in data set [2] (after 20 minutes) is “about 7 mM”; in data set [2] (after 60 minutes), “about 10 mM”; in data set [2] (after 120 minutes) it was “about 17 mM”. The sucrose concentration remaining result in data set [2] (after 60 minutes of enzymatic conversion, in the presence of sucralose, starting sucrose 50 mM (FIG. 4)) was “about 15 mM”. Besides, the “α-anomer of glucose formed” value was “about 22 mM” in data set [2] (after 60 minutes) and “about 22.5 mM” in data set [2] (after 120 minutes). Also, the maximum rate (Vmax) in data set [2] (in the presence of sucralose, FIG. 4 (equimolar sucrose:sucralose, ~50 mM each)) worked out at 1.87 µM/min; in data set [2] (sucralose 1 mM, sucrose 40 mM (40:1)) it was 2.71 ± 0.04 µM/min; in data set [2] (sucralose 5 mM, sucrose 40 mM (8:1)), 2.95 ± 0.04 µM/min; in data set [2] (sucralose 10 mM, sucrose 40 mM (4:1)) it was 2.61 ± 0.03 µM/min; in data set [2] (sucralose 20 mM, sucrose 40 mM (2:1)), 2.49 ± 0.02 µM/min; in data set [2] (sucralose 40 mM, sucrose 40 mM (1:1)), 2.25 ± 0.02 µM/min. For the same molecule, the maximal velocity (Vmax) in data set [2] (sucralose 60 mM, sucrose 40 mM (1:1.5)) stood at 1.87 ± 0.02 µM/min; in data set [2] (sucralose 80 mM, sucrose 40 mM (1:2)) it was 1.72 ± 0.02 µM/min. For the same molecule, the “decrease of Vmax per unit increase of sucralose” value in data set [2] (regression line, FIG. 12B) was found to be 6.54 ± 0.03 µM/min. For the same molecule, in data set [2] (regression line, FIG. 12C), the “decrease of catalytic efficiency of the enzyme per unit increase of sucralose (in mM)” value amounted to 152.1 mM^2/min. Besides, the “reduction of the enzymatic activity of the invertase” value in data set [2] (sucralose 50 mM) is reported as 20%. Besides, the “conversion of sucralose by enzymatic hydrolysis (invertase)” value in data set [2] (sucralose concentration during sucrose hydrolysis) is “not affected by enzymatic hydrolysis; also recorded: not converted”.
Consider `OC[C@H]1O[C@@](CO)(O[C@H]2O[C@H](CO)[C@@H](O)[C@H](O)[C@H]2O)[C@@H](O)[C@@H]1O` [sucrose], for which, in data set [2] (no sucralose (0 mM), sucrose 40 mM, sucrose:sucralose 1:0), the maximal velocity (Vmax) worked out at 2.57 ± 0.03 µM/min.

B1: Invertase (EC 3.2.1.26, β-fructofuranosidase) (Saccharomyces cerevisiae S288C) (protein)
chain: SMTNETSDRPLVHFTPNKGWMNDPNGLWYDEKDAKWHLYFQYNPNDTVWGTPLFWGHATSDDLTNWEDQPIAIAPKRNDSGAFSGSMVVDYNNTSGFFNDTIDPRQRCVAIWTYNTPESEEQYISYSLDGGYTFTEYQKNPVLAANSTQFRDPKVFWYEPSQKWIMTAAKSQDYKIEIYSSDDLKSWKLESAFANEGFLGYQYECPGLIEVPTEQDPSKSYWVMFISINPGAPAGGSFNQYFVGSFNGTHFEAFDNQSRVVDFGKDYYALQTFFNTDPTYGSALGIAWASNWEYSAFVPTNPWRSSMSLVRKFSLNTEYQANPETELINLKAEPILNISNAGPWSRFATNTTLTKANSYNVDLSNSTGTLEFELVYAVNTTQTISKSVFADLSLWFKGLEDPEEYLRMGFEVSASSFFLDRGNSKVKFVKENPYFTNRMSVNNQPFKSENDLSYYKVYGLLDQNILELYFNDGDVVSTNTYFMTTGNALGSVNMTTGVDNLFYIDKFQVREVK
notes: purchased Sigma-Aldrich
Usually Km stands for the concentration of substrate that gives half-maximal velocity. In the case of B1, the Km in data set [3] (setting [4]) worked out at 38.57 ± 3.72 mM; in data set [3] (setting [5]), 34.69 ± 3.96 mM; in data set [3] (setting [6]), 43.59 ± 11.90 mM; in data set [3] (setting [7]), 37.44 ± 7.79 mM; in data set [3] (setting [8]), 50.60 mM. Moreover, the Vmax in data set [3] (setting [4]) is 2.54 ± 0.18 µM/min; in data set [3] (setting [5]), 2.34 ± 0.18 µM/min; in data set [3] (setting [6]) it was 2.77 ± 0.54 µM/min; in data set [3] (setting [7]), 2.51 ± 0.36 µM/min; in data set [3] (setting [8]), 2.57 ± 0.03 µM/min.
